Assay results published in US10905691B2, “Use of triazolo(4,5-d)pyrimidine derivatives for prevention and treatment of bacterial infection” (Universite de Liege, priority 2016, dated 2021).
Converted amounts (≈) assume the structure as drawn.

What was measured:
E. faecalis ATCC 29212 = test: MIC determination (EUCAST, Mueller-Hinton broth); type: cell-based; conditions: Enterococcus faecalis, ATCC29212
Description: Further experiments were conducted using different strains of E. faecalis, as clinically relevant Gram-positive bacterial strains: E. faecalis vancomycin-resistant (VRE) ATCC BAA-2365, and E. faecalis ATCC 29212 in order to determine the Minimal Inhibitory Concentration (MIC) which is the minimal concentration required to prevent bacterial growth; the Minimal Bactericidal Concentration (MBC) which determines the lowest concentration at which an antimicrobial agent kill a particular microorganism and a Minimum Duration for killing 99.9% bacteria (MDK99.9) which is a tolerance metric according to the EUCAST.
MIC determination: A single colony selected from the different strains of E. faecalis is resuspended and cultured in the appropriate medium overnight (O/N) in aerobic conditions (37° C. with 220 rpm shaking), next day a 1:100 inoculum in Mueller-Hinton broth (MHB) was incubated in aerobic conditions for 3 hr (OD=0.08-0.1) and an inoculum of 1:300 dilution, corresponding to 3×10^5 CFU/ml, was incubated in presence or absence of different concentrations of Triafluocyl in 1% DMSO. After O/N growth the OD of each culture was measured at 600 nm in a spectrophotometer (OD600). The MIC represents the concentration at which there is no visible growth of bacteria, i.e. ΔOD at 600 nm equal to zero (blank is the medium alone). […]

S. aureus (ATCC 25904) = test: Growth kinetics in logarithmic phase (OD600 and viable count); type: cell-based, Staphylococcus aureus; conditions: 20-100 min, FIG. 1
Description: S. aureus (American Type Culture Collection, ATCC 25904) was grown overnight in Tryptic Soy Broth (TSB) medium, diluted 1:100 in fresh TSB, and incubated aerobically at 37° C. until bacteria growth reached a logarithmic phase (OD600=0.25-0.3).
Increasing concentrations of Triafluocyl (Cayman Chemical, Item No. 15425) or vehicle (DMSO) was then added in 5 ml of bacteria suspensions. Bacterial growth was measured after different time intervals (20-100 min) by spectrophotometry (OD600) and by counting the colony-forming units after plating appropriate culture dilutions on TS agar plates.
In FIG. 1 kinetics of S. aureus growth in the presence of an increasing concentrations (1 μg/ml to 20 μg/ml) of Triafluocyl were measured by turbidity measurement (upper graph), and viable count (lower graph). Data represent medians±range (n=3). *p<0.05; **p<0.01, ***p<0.001, Triafluocyl vs vehicle.

S. epidermidis = test: Growth of low-density inoculum (OD600, 4 hr); type: cell-based, Staphylococcus epidermidis; conditions: inoculum 0.08×10^6 CFU/ml
From the text: Moreover, we have tested the effect of Triafluocyl on a low-density inoculum, 0.08×10^6 CFU/ml, from a culture of S. epidermidis in logarithmic phase.

S. epidermidis biofilm = test: Biofilm formation (crystal violet, 24-well plate); type: cell-based, Staphylococcus epidermidis
Description: To study the effect of Triafluocyl on biofilm formation, S. epidermidis in early logarithmic phase (5×10^8 CFU/ml) was plated in a 24-well plate and let to adhere at the bottom of the well for 4 hr at 37° C. in static conditions. After 4 hr incubation, planktonic bacteria were removed and adherent bacteria were washed twice in TSB. Fresh TSB medium supplemented or not with 0.25% glucose was added to the well with 5 different concentrations of Triafluocyl and incubated for 24 hours. Wells were washed 3 times with NaCl 0.9% and incubated for 1 hr at RT with Crystal Violet 1% solution in dH2O to stain the biofilm. Wells were washed 3 times with dH2O to eliminate unbound crystal violet, then 400 μl Acetic Acid 10% was added and incubated at RT for 10 min. Absorbance was measured in triplicate at 570 nm, reflecting total biomass of the biofilm (live and dead bacteria). The concentration of Triafluocyl that inhibits at least 90% biofilm formation is called minimum biofilm inhibitory concentration (MBIC). Triafluocyl MBIC for S. epidermidis is 50 μg/ml both in the presence and in the absence of glucose.

S. aureus Mu50 GISA = test: Killing curve (CFU counting); type: cell-based, Staphylococcus aureus; conditions: Triafluocyl 20 μg/ml vs high dose of Minocycline; FIG. 8B
Description: S. aureus Mu50 GISA was grown overnight in brain heart infusion (BHI) medium, diluted 1:100 in fresh BHI, and incubated aerobically at 37° C. until bacteria growth reached a logarithmic phase (OD600=0.25-0.3).
[…] Bacterial growth was measured after different time intervals by counting the colony-forming units after plating appropriate culture dilutions on BHI agar plates.

[1] = system: E. faecalis VRE (ATCC BAA-2365); test: Killing curve (CFU counting); type: cell-based, Enterococcus faecalis; conditions: Triafluocyl 20 μg/ml; Minocycline 10 μg/ml; FIG. 8C
Description: E. faecalis VRE (ATCC BAA-2365) was grown overnight in brain heart infusion (BHI) medium, diluted 1:100 in fresh BHI, and incubated aerobically at 37° C. until bacteria growth reached a logarithmic phase (OD600=0.2-0.25).
Triafluocyl (Cayman Chemical, Item No. 15425) (20 μg/ml), Minocycline (Sigma, 10 μg/ml) or vehicle (DMSO) was then added in 5 ml of bacteria suspensions. Bacterial growth was measured after different time intervals by counting the colony-forming units after plating appropriate culture dilutions on BHI agar plates.

## CCCSc1nc(N[C@@H]2C[C@H]2c2ccc(F)c(F)c2)c2nnn([C@@H]3C[C@H](OCCO)[C@@H](O)[C@H]3O)c2n1 [Triafluocyl, (1S,2S,3R,5S)-3-[7-[(1R,2S)-2-(3,4-difluorophenyl)cyclopropylamino]-5-(propylthio)-3H-[1,2,3]-triazolo[4,5-d]pyrimidin-3-yl]-5-(2-hydroxyethoxy)-1,2-cyclopentanediol]
E. faecalis ATCC 29212
  MIC: 40 µg/mL (≈ 76.5 µM)
S. aureus (ATCC 25904); 10 μg/ml
  effect on bacterial growth (turbidity and viable count): able to inhibit bacterial growth
S. aureus (ATCC 25904); 20 μg/ml
  effect on bacterial growth (turbidity and viable count): potent bactericidal effect
S. epidermidis; 5 μg/ml
  decrease of OD600 compared to growth in absence of Triafluocyl: 50%
S. epidermidis; 10 μg/ml
  growth (OD600) of low-density inoculum: inhibited growth
S. epidermidis; 20 μg/ml
  growth (OD600) of low-density inoculum: inhibited growth
S. epidermidis biofilm; 20 μg/ml, presence of glucose (0.25%), 24 hours
  biofilm reduction: 50%
S. epidermidis biofilm; Staphylococcus epidermidis, 5 μg/ml, absence of glucose, 24 hours
  inhibition at 5 µg/mL: 50%
S. epidermidis biofilm; absence of glucose
  minimum biofilm inhibitory concentration (MBIC), at least 90% inhibition of biofilm formation: 50 µg/mL
S. epidermidis biofilm; presence of glucose
  minimum biofilm inhibitory concentration (MBIC), at least 90% inhibition of biofilm formation: 50 µg/mL
S. aureus Mu50 GISA
  antibacterial effect on S. aureus GISA compared with Minocycline: quicker and more efficient antibacterial effect
[1]
  antibacterial effect on E. faecalis VRE (killing curve): bactericidal effect
